What was measured:
[1] = tested on: male S.D. rats injected with Substance P; assay: Pharmacological Test 3: analgesic effect (Randall-Sellitto pain threshold after Substance P injection); assay type: in vivo, rat; settings: for analgesic effect (in words): conclusion from Table 15; for Recovery rate (%) of the pain threshold (highest recovery rate): oral, 5% gum arabic suspension 10 ml/kg, measurement point 60 minutes after Substance P injection
Procedure: Pharmacological Test 3 Test for Evaluating Analgesic Effect Using two groups (test group and control group) each consisting of 6-week-old male S.D. rats (7 rats in each group), the pain threshold of each rat's left hind paw was measured using an Analgesy-meter (product of Unicom) in accordance with the Randall-Sellitto method [Randall, L. O. and Sellitto, J. J., Arch. Int. Pharmacodyn., 111, 409–419 (1957)]. The value thus obtained was termed “pre-value”. One hour after the measurement of the pre-value, a 5% gum arabic suspension containing compound of the invention was orally administered to the rats of the test group in an amount of 10 ml/kg, whereas a 5% gum arabic suspension (not containing compound of the invention) was orally administered to the rats of the control group in an amount of 10 ml/kg. One hour after the oral administration, a physiological saline solution containing Substance P (25 ng/0.1 ml) was subcutaneously injected into the left hind paw of each rat. The pain threshold of each rat's left hind paw was measured in the same manner as above at predetermined time intervals after the Substance P injection. The measured value is termed the “post-value”. The recovery rate (%) of the pain threshold was calculated from the post-values and pre-values of the test group and control group, by means of the following formula: [formula]

[2] = tested on: excised ilea of Hartley male guinea pigs; assay: Pharmacological Test 2: adenosine enhancing effect on electrically stimulated contraction of excised ileum; settings: guinea pig ileum, n=2
Procedure: Adenosine Enhancing Effect
The compounds obtained in Examples 1 and 34 were used as test compounds in the form of a dimethyl sulfoxide solution.
As experimental animals, Hartley male guinea pigs (purchased from CHARLES RIVER JAPAN, INC.) (that were in good general condition at least 6 days after the purchase) were used. The animals were housed in a cage under controlled conditions of temperature of 20 to 26° C. (actually measured value: 22.1 to 22.9° C.), humidity of 40–70% (actually measured value: 50.3–51.5%) and lighting of 12 hours/day (7:00–19:00). The animals had free access to food (solid diet, product name of Labo G Standard, product of Nosan Corporation) and tap water.
The following experiments were conducted using the excised ilea (n=2) of experimental animals (body weight at the time of testing: 316–388 g). The experimental animals were bled and slaughtered. […] The contraction reaction of samples was recorded on an ink-writing recorder (GRAPHTEC, SR-6211, SR-6221) through an isotonic transducer (product of NIHON KOHDEN CORPORATION, TD-112S). […]
That is, the nutrient solution was exchanged, electronic stimulation was applied to the samples 15 minutes after exchange of the nutrient solution, and, when contraction stabilized, adenosine was cumulatively added from 10^−6 M to 10^−5 M. The adenosine dose-response curve was then obtained, and the ED50 value was calculated. […]

[3] = tested on: streptozotocin (STZ) treated male S.D. rats; assay: Pharmacological Test 1: therapeutic effect on diabetic neuropathy (Randall-Selitto pain threshold in STZ rats); assay type: in vivo, rat; settings: 30 mg/kg orally once a day, three hours after administration, left hind paw
Procedure: Pharmacological Test 1 Therapeutic Effect on Diabetic Neuropathy A model group was obtained by intravenously administering 50 mg/kg streptozotocin (STZ) dissolved in 0.01 M citrate buffer solution to 8-week-old male S.D. rats. After administration, five rats were housed per cage and kept therein. Three weeks after administration of STZ, the pain threshold of each rat's left hind paw to pressure stimulation was measured by Randall-Selitto Test [Randall, L. O. and Selitto, J. J. Arch. Int. Pharmacodyn., 111, 409–419 (1957)]. The value thus obtained was termed “pre-value”. […] A 5% gum arabic solution containing the test compound was orally administered as specimen to experimental animals in one of the above three groups (test group) in such a manner that each dosage of the test compound was 30 mg/kg and the amount of administered solution was 10 ml/kg, once a day for 21 continuous days. […] On the 14th and 21st days, the pain threshold of the left hind paw of the experiment animals was measured three hours after administration. The recovery rate (%) of the pain threshold was calculated by means of the following formula: Recovery rate (%)=[(T−C)/(N−C)]×100 (wherein T is the test group average value, C is the control group average value and N is the non-treated group average value.)

melting point	SMILES	also measured
84 to 87 °C	COc1cc(COCC[S+](C)c2c([O-])c3cccnc3n(Cc3ccccc3)c2=O)cc2c1OCO2 (centres unmarked) [Example 8]	
132 to 134 °C	COc1cc(COCC[S+](C)c2c([O-])c3cccnc3n(Cc3ccccc3)c2=O)cc(O)c1OC (centres unmarked) [Example 9]	
161 to 163 °C	Cc1cccc(C)c1COCC[S+](C)c1c([O-])c2cccnc2n(Cc2ccccc2)c1=O (centres unmarked) [Example 4]	
121 to 123 °C	COc1cc(COCC[S+](C)c2c([O-])c3cccnc3n(Cc3ccccc3)c2=O)cc(OC)c1O (centres unmarked) [Example 10]	
165 to 167 °C	Cc1cc(C)c(COCC[S+](C)c2c([O-])c3cccnc3n(Cc3ccccc3)c2=O)c(C)c1 (centres unmarked) [Example 5]	
130 to 132 °C	C[S+](CCOCc1ccccc1)c1c([O-])c2cccnc2n(Cc2ccccc2)c1=O (centres unmarked) [Example 2]	

The remaining lines, values behind:

SMILES	melting point	also measured
COc1cc(Cn2c(=O)c([S+](C)CCOc3cc(OC)c(OC)c(OC)c3)c([O-])c3cccnc32)cc(OC)c1OC (centres unmarked) [Example 15, 1-(3,4,5-trimethoxybenzyl)-3-[methyl-2-(3,4,5-trimethoxyphenoxy)ethylsulfonium]-1,8-naphthyridine-2(1H)-one-4-olate]		analgesic effect (in words) [1]: excellent analgesic effect; Recovery rate (%) of the pain threshold (highest recovery rate) [1]: 39%
CC[S+](CCCOc1cc(OC)c(OC)c(OC)c1)c1c([O-])c2cccnc2n(Cc2ccccc2)c1=O (centres unmarked) [Example 34, 1-benzyl-3-[ethyl-3-(3,4,5-trimethoxyphenoxy)propylsulfonium]-1,8-naphthyridine-2(1H)-one-4-olate]		Adenosine enhancing effect (ED50(−)/ED50(+)) ([2]; test compound concentration 10^−5 M): 14.00
C[S+](CCCOc1ccc(Cl)cc1)c1c([O-])c2cccnc2n(Cc2ccccc2)c1=O (centres unmarked) [Example 3]	145 to 147 °C	
C[S+](CCOCc1cc(C(F)(F)F)cc(C(F)(F)F)c1)c1c([O-])c2cccnc2n(Cc2ccccc2)c1=O (centres unmarked) [Example 6]	157 to 159 °C	
C[S+](CCOCc1ccc2c(c1)OCO2)c1c([O-])c2cccnc2n(Cc2ccccc2)c1=O (centres unmarked) [Example 7]	124 to 126 °C	
COc1cc(OCCC[S+](C)c2c([O-])c3cccnc3n(Cc3ccccc3)c2=O)cc(OC)c1OC (centres unmarked) [Example 1, 1-benzyl-3-[methyl-3-(3,4,5-trimethoxyphenoxy)propylsulfonium]-1,8-naphthyridine-2(1H)-one-4-olate]	147 to 149 °C	Recovery rate (%) of the pain threshold, 14th day ([3]; 14th day): 46.2%; Recovery rate (%) of the pain threshold, 21st day ([3]; 21st day): 56.7%; analgesic effect (in words) [1]: excellent analgesic effect; Recovery rate (%) of the pain threshold (highest recovery rate) [1]: 46%; Adenosine enhancing effect (ED50(−)/ED50(+)) ([2]; test compound concentration 10^−6 M): 11.11
COc1cc(OCC[S+](C)c2c([O-])c3cccnc3n(C)c2=O)cc(OC)c1OC (centres unmarked) [Example 36, 1-methyl-3-[methyl-2-(3,4,5-trimethoxyphenoxy)ethylsulfonium]-1,8-naphthyridine-2(1H)-one-4-olate]		analgesic effect (in words) [1]: excellent analgesic effect; Recovery rate (%) of the pain threshold (highest recovery rate) [1]: 111%

From US7071187B2, “Naphthyridine derivatives” (Otsuka Pharmaceutical Factory, Inc., priority 2001, dated 2006)
